# Laboratory results published in patent US11447465B2, “Pharmaceutical compounds for treatment of medical disorders” (Achillion Pharmaceuticals, Inc., priority 2017, dated 2022).
# Molecular target: Human Factor D (Homo sapiens (Human), UniProt P00746)
# Test: Human Factor D Assay
# Type: biochemical
# Details: Table 5; Human Factor D 80 nM, substrate Z-L-Lys-SBzl; read-out: IC50 (Stars)
# Method: Human Factor D (purified from human serum, Complement Technology, Inc.) at 80 nM final concentration is incubated with test compound at various concentrations for 5 min at room temperature in 50 mM Tris, 1M NaCl, pH 7.5. A synthetic substrate Z-L-Lys-SBzl and DTNB (Ellman's reagent) are added to final concentrations of 100 μM each. Absorbance at 405 nm (A405) is recorded at 30 second intervals for 30 min using a microplate spectrophotometer. IC50 values are calculated by nonlinear regression of Complement Factor D reaction rates as a function of test compound concentration.
# Sequence of Human Factor D (P00746 26-253): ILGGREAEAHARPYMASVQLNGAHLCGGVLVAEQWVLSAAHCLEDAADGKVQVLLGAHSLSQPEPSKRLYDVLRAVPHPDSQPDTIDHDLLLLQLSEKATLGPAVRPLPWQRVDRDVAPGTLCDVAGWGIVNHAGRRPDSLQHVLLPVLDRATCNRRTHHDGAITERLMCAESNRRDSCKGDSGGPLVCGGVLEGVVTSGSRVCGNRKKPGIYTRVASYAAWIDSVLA
row,Compound,IC50
1,"CC(=O)c1nn(CC(=O)N2[C@H]3C[C@@]3(C)C[C@H]2C(=O)Nc2nc(Br)ccc2C)c2c(S(C)(=N)=O)cccc12 (stereo partly drawn) [Compound T-36, (1S,3S,5S)-2-(2-(3-acetyl-7-(S-methylsulfonimidoyl)-1H-indazol-1-yl)acetyl)-N-(6-bromo-3-methylpyridin-2-yl)-5-methyl-2-azabicyclo[3.1.0]hexane-3-carboxamide]",> 10000 nM
2,"CC(=O)c1nn(CC(=O)N2C[C@H](F)C[C@H]2C(=O)Nc2cccc(Br)n2)c2c1CCCC2 [Compound T-37, (2S,4R)-1-(2-(3-acetyl-4,5,6,7-tetrahydro-1H-indazol-1-yl)acetyl)-N-(6-bromopyridin-2-yl)-4-fluoropyrrolidine-2-carboxamide]",1000 to 10000 nM
3,"CC(=O)c1nn(CC(=O)N2[C@H]3C[C@@]3(CN(C)C)C[C@H]2C(=O)NCc2cccc(Cl)c2F)c2cc(P(C)(=O)O)ccc12 [Compound T-38, (3-acetyl-1-(2-((1S,3S,5S)-3-((3-chloro-2-fluorobenzyl)carbamoyl)-5-((dimethylamino)methyl)-2-azabicyclo[3.1.0]hexan-2-yl)-2-oxoethyl)-1H-indazol-6-yl)(methyl)phosphinic acid]",1000 to 10000 nM
4,"CC(=O)c1nn(CC(=O)N2[C@H](C(=O)Nc3nc(Br)ccc3C)C[C@@]3(CN4C[C@H]5CCC[C@H]5C4)C[C@@H]23)c2c(C)cccc12 [Compound T-39, (1R,3S,5R)-2-(2-(3-acetyl-7-methyl-1H-indazol-1-yl)acetyl)-N-(6-bromo-3-methylpyridin-2-yl)-5-(((3aR,6aS)-hexahydrocyclopenta[c]pyrrol-2(1H)-yl)methyl)-2-azabicyclo[3.1.0]hexane-3-carboxamide]",< 1000 nM
5,"CC(=O)c1nn(CC(=O)N2[C@H](C(=O)Nc3nc(Br)ccc3C)C[C@@]3(C)C[C@@H]23)c2c(S(C)=N)cccc12 (stereo partly drawn) [Compound T-40, (1R,3S,5R)-2-(2-(3-acetyl-7-(S-methylsulfinimidoyl)-1H-indazol-1-yl)acetyl)-N-(6-bromo-3-methylpyridin-2-yl)-5-methyl-2-azabicyclo[3.1.0]hexane-3-carboxamide]",< 1000 nM
6,"CC(=O)c1nn(CC(=O)N2[C@H](C(=O)Nc3nc(Br)ccc3C)C[C@@]3(C)C[C@@H]23)c2c(S(C)(=N)=O)cccc12 (stereo partly drawn) [Compound T-41, (1R,3S,5R)-2-(2-(3-acetyl-7-(S-methylsulfonimidoyl)-1H-indazol-1-yl)acetyl)-N-(6-bromo-3-methylpyridin-2-yl)-5-methyl-2-azabicyclo[3.1.0]hexane-3-carboxamide]",< 1000 nM
7,"CC(=O)c1nn(CC(=O)N2[C@H](C(=O)Nc3nc(Br)ccc3C)C[C@@]3(CN4CC5(CCCC5)C4)C[C@@H]23)c2c(C)cccc12 [Compound T-42, (1R,3S,5R)-5-(2-azaspiro[3,4]octan-2-ylmethyl)-2-(2-(3-acetyl-7-methyl-1H-indazol-1-yl)acetyl)-N-(6-bromo-3-methylpyridin-2-yl)-2-azabicyclo[3.1.0]hexane-3-carboxamide]",< 1000 nM
8,"CC(=O)c1nn(CC(=O)N2[C@H](C(=O)Nc3nc(Br)ccc3C)C[C@@]3(CNC(=O)C4CCCC4(F)F)C[C@@H]23)c2c(C)cccc12 (stereo partly drawn) [Compound T-43, (1R,3S,5R)-2-(2-(3-acetyl-7-methyl-1H-indazol-1-yl)acetyl)-N-(6-bromo-3-methylpyridin-2-yl)-5-((2,2-difluorocyclopentane-1-carboxamido)methyl)-2-azabicyclo[3.1.0]hexane-3-carboxamide]",< 1000 nM
9,"CC(=O)c1cn(CC(=O)N2[C@H](C(=O)NCc3cccc(Cl)c3F)C[C@@]3(CN4CCN(C)CC4)C[C@@H]23)c2cc(P(=O)(O)O)ccc12 [Compound T-44, (3-acetyl-1-(2-((1R,3S,5R)-3-((3-chloro-2-fluorobenzyl)carbamoyl)-5-((4-methylpiperazin-1-yl)methyl)-2-azabicyclo[3.1.0]hexan-2-yl)-2-oxoethyl)-1H-indol-6-yl)phosphonic acid]",< 1000 nM
10,"CC(=O)c1cn(CC(=O)N2[C@H]3C[C@@]3(CN3CCN(C)CC3)C[C@H]2C(=O)NCc2cccc(Cl)c2F)c2cc(P(=O)(O)O)ccc12 [Compound T-45, (3-acetyl-1-(2-((1S,3S,5S)-3-((3-chloro-2-fluorobenzyl)carbamoyl)-5-((4-methylpiperazin-1-yl)methyl)-2-azabicyclo[3.1.0]hexan-2-yl)-2-oxoethyl)-1H-indol-6-yl)phosphonic acid]",1000 to 10000 nM
11,"CC(=O)c1cn(CC(=O)N2C3CC3(CN(C)C)C[C@H]2C(=O)NCc2cccc(Cl)c2F)c2cc(P(=O)(O)O)ccc12 (stereo partly drawn) [Compound T-46, (3-acetyl-1-(2-((3S)-3-((3-chloro-2-fluorobenzyl)carbamoyl)-5-((dimethylamino)methyl)-2-azabicyclo[3.1.0]hexan-2-yl)-2-oxoethyl)-1H-indol-6-yl)phosphonic acid]",1000 to 10000 nM
12,"CC(=O)c1cn(CC(=O)N2[C@H](C(=O)NCc3cccc(Cl)c3F)C[C@@]3(CN(C)C)C[C@@H]23)c2cc(P(C)(=O)O)ccc12 [Compound T-47, (3-acetyl-1-(2-((1R,3S,5R)-3-((3-chloro-2-fluorobenzyl)carbamoyl)-5-((dimethylamino)methyl)-2-azabicyclo[3.1.0]hexan-2-yl)-2-oxoethyl)-1H-indol-6-yl)(methyl)phosphinic acid]",< 1000 nM
13,"CC(=O)c1cn(CC(=O)N2[C@H]3C[C@@]3(CN(C)C)C[C@H]2C(=O)NCc2cccc(Cl)c2F)c2cc(P(C)(=O)O)ccc12 [Compound T-48, (3-acetyl-1-(2-((1S,3S,5S)-3-((3-chloro-2-fluorobenzyl)carbamoyl)-5-((dimethylamino)methyl)-2-azabicyclo[3.1.0]hexan-2-yl)-2-oxoethyl)-1H-indol-6-yl)(methyl)phosphinic acid]",1000 to 10000 nM
14,"CC(=O)c1nn(CC(=O)N2[C@H](C(=O)Nc3nc(Br)ccc3C)C[C@@]3(CN(C)C)C[C@@H]23)c2cc(C(=O)NS(=O)(=O)C3CC3)ccc12 [Compound T-49, 3-acetyl-1-(2-((1R,3S,5R)-3-((6-bromo-3-methylpyridin-2-yl)carbamoyl)-5-((dimethylamino)methyl)-2-azabicyclo[3.1.0]hexan-2-yl)-2-oxoethyl)-N-(cyclopropylsulfonyl)-1H-indazole-6-carboxamide]",< 1000 nM
15,"CC(=O)c1nn(CC(=O)N2[C@H]3C[C@@]3(CN(C)C)C[C@H]2C(=O)Nc2nc(Br)ccc2C)c2cc(C(=O)NS(=O)(=O)C3CC3)ccc12 [Compound T-50, 3-acetyl-1-(2-((1S,3S,5S)-3-((6-bromo-3-methylpyridin-2-yl)carbamoyl)-5-((dimethylamino)methyl)-2-azabicyclo[3.1.0]hexan-2-yl)-2-oxoethyl)-N-(cyclopropylsulfonyl)-1H-indazole-6-carboxamide]",1000 to 10000 nM

# Same assay, conditions: Table 6; Human Factor D 80 nM, substrate Z-L-Lys-SBzl; read-out: IC5 (Stars)
row,Compound,IC50
1,"CC(=O)c1nn(CC(=O)N2[C@H](C(=O)Nc3nc(Br)ccc3C3CC3)C[C@@]3(C)C[C@@H]23)c2ccc(O[C@@H]3CO[C@H]4[C@@H]3OC[C@H]4O)cc12 [Compound T-51, (1R,3S,5R)-2-(2-(3-acetyl-5-(((3R,3aR,6R,6aR)-6-hydroxy-hexahydrofuro[3,2-b]furan-3-yl)oxy)-1H-indazol-1-yl)acetyl)-N-(6-bromo-3-cyclopropyl-pyridin-2-yl)-5-methyl-2-azabicyclo[3.1.0]hexane-3-carboxamide]",< 1000 nM
2,"CC(=O)c1nn(CC(=O)N2[C@H](C(=O)Nc3nc(Br)ccc3C)C[C@@]3(C)C[C@@H]23)c2ccc(O[C@@H]3CO[C@H]4[C@@H]3OC[C@H]4O)cc12 [Compound T-52, (1R,3S,5R)-2-(2-(3-acetyl-5-(((3R,3aR,6R,6aR)-6-hydroxy-hexahydrofuro[3,2-b]furan-3-yl)oxy)-1H-indazol-1-yl)acetyl)-N-(6-bromo-3-methylpyridin-2-yl)-5-methyl-2-azabicyclo[3.1.0]hexane-3-carboxamide]",< 1000 nM
3,"CC(=O)O[C@@H]1CO[C@H]2[C@@H]1OC[C@H]2Oc1ccc2c(c1)c(C(C)=O)nn2CC(=O)N1C[C@H](F)C[C@H]1C(=O)Nc1nc(Br)ccc1C [Compound T-53, (3R,3aR,6R,6aR)-6-((3-acetyl-1-(2-((2S,4R)-2-((6-bromo-3-methylpyridin-2-yl)carbamoyl)-4-fluoropyrrolidin-1-yl)-2-oxoethyl)-1H-indazol-5-yl)oxy)hexahydrofuro[3,2-b]furan-3-yl acetate]",< 1000 nM
4,"CC(=O)c1nn(CC(=O)N2C[C@H](F)C[C@H]2C(=O)Nc2cccc(Br)n2)c2ccc(OCCS(=O)(=O)CC3(C)COC3)cc12 [Compound T-54, (2S,4R)-1-(2-(3-acetyl-5-(2-(((3-methyloxetan-3-yl)methyl)sulfonyl)ethoxy)-1H-indazol-1-yl)acetyl)-N-(6-bromopyridin-2-yl)-4-fluoro-pyrrolidine-2-carboxamide]",< 1000 nM
5,"CC(=O)c1nn(CC(=O)N2C[C@H](F)C[C@H]2C(=O)Nc2nc(Br)ccc2C)c2ccc(OCCS(=O)(=O)CC3(C)COC3)cc12 [Compound T-55, (2S,4R)-1-(2-(3-acetyl-5-(2-(((3-methyloxetan-3-yl)methyl)sulfonyl)ethoxy)-1H-indazol-1-yl)acetyl)-N-(6-bromo-3-methylpyridin-2-yl)-4-fluoro-pyrrolidine-2-carboxamide]",< 1000 nM
6,"CC(=O)c1nn(CC(=O)N2C(C(=O)Nc3nc(Br)ccc3C)C[C@]3(C)C[C@H]23)c2ccc(OCCS(=O)(=O)CC3(C)COC3)cc12 (stereo partly drawn) [Compound T-56, (1S,5S)-2-(2-(3-acetyl-5-(2-(((3-methyloxetan-3-yl)methyl)sulfonyl)ethoxy)-1H-indazol-1-yl)acetyl)-N-(6-bromo-3-methylpyridin-2-yl)-5-methyl-2-azabicyclo[3.1.0]hexane-3-carboxamide]",1000 to 10000 nM
